From patent US20190218504A1, “METHODS OF CULTURING AURANTIOCHYTRIUM USING ACETATE AS AN ORGANIC CARBON SOURCE” (HELIAE DEVELOPMENT LLC, priority 2016, published 2019)
Read-outs that look alike come from different tables or passages of the source.

Tests used:
[1] = test system: Aurantiochytrium sp. HS399; settings: for growth with nitrogen source under an acetic acid pH auxostat system: pH 5.5 or 6.0
[2] = test system: Aurantiochytrium sp. HS399
Procedure: An experiment was performed to determine if Aurantiochytrium sp. HS399 can grow using acetate as an organic carbon source and ammonia as a nitrogen source. Aurantiochytrium was grown in an acetic acid/pH-auxostat mode in 700 ml bubble column at 27° C. in sterile conditions. The base medium contained: NaCl (12.5 g/L), MgSO4.7H2O (2.5 g/L), KCl (0.5 g/L). CaCl2) (0.1 g/L), KH2PO4 (0.125 g/L) vitamins (0.25 ml/L) and trace metal (1.25 ml/L). Trace and vitamins stocks were prepared according to Ashford, et al. 2000. Lipids 35, 1377-1386. A blend of ammonium (hydroxide and acetic acid 1:5 w/w) with slightly higher molar ratio of acetic acid (1:1.1) was prepared with the aim maintain residual acetate present until the end of the pH auxostat. The pH auxostat was set to pH 6.6. The ammonium acetate blend was added to the treatments in order to match the following concentrations: 1×: 1.07 g/L NH4, 5.68 g/L acetic acid, 3×: 3.21 g/L NH4, 17.04 g/L acetic acid, 5×: 5.35 g/L NH4, 28.40 g/L acetic acid, 7×: 7.49 g/L NH4, 39.76 g/L acetic acid.

[3] = test system: Aurantiochytrium sp. HS399; settings: FIG. 1; pH set point 5.5 and 7
Procedure: An experiment was performed to determine the ability of Aurantiochytrium to grow on combination of acetate and another organic carbon source in axenic and contaminated culture conditions. […] The initial culture medium was supplemented with 30 g/L glycerol and 0.5 g/L acetate. […] Cell dry weights were measured daily.

[4] = test system: Aurantiochytrium sp. HS399; settings: cultures with a pH of 5 and above
Procedure: Aurantiochytrium was grown in an acetic acid/pH-auxostat mode in 700 ml bubble column at 27° C. in sterile conditions. […] Trace and vitamins stocks were prepared according to Ashford, et al. 2000.

aerobic bacteria = settings: throughout the batch, Table 20
Procedure: (§1) An experiment was performed to determine the effectiveness of growing Aurantiochytrium with combination of acetate and a non-acetate organic carbon sources, in this case glycerol. Aurantiochytrium sp. HS399 was grown in a 100 L open pond. The base medium contained: sodium acetate (1 g/L), glycerol (30 g/L) monosodium glutamate monohydrate (2.5 g/L) NaCl (12.5 g/L), MgSO4.7H2O (2.5 g/L), KCl (0.5 g/L), CaCl2 (0.1 g/L), KH2PO4 (0.5 g/L), vitamins (1 ml/L), and trace metal (5 ml/L). Trace and vitamins stocks were prepared according to Ashford, et al. 2000. Lipids 35, 1377-1386. The ponds were inoculated at 1 v/v using exponentially growing cultures. Aeration was maintained at 0.5 vvm using a porous hose. In one treatment the pH was controlled at a set point of pH 7 with hydrochloric acid, and no acetic acid was supplied (i.e., glycerol only). In another treatment acetic acid was supplied by a pH auxostat system at a set point of 5.5 in addition to the glycerol. The impact on microalgae growth and contamination was analyzed by measuring dry weights (filtration), residual acetate concentration in the culture medium (HPLC), and total aerobic bacteria counts (petrifilms) daily.

[5] = test system: Aurantiochytrium sp. HS399; settings: Table 19
Procedure: as §1

`N[C@@H](CCC(=O)O)C(=O)[O-].[Na+]` [MSG, monosodium glutamate] was tested, and the “Cell Dry Weight” value ([1]; pH 5.5, 2.5 g/L, time 1 d) was 2.6 ± 0.0 g/L, the “Cell Dry Weight” value ([1]; pH 5.5, 2.5 g/L, time 2 d) was 5.2 ± 0.0 g/L and the “Cell Dry Weight” value ([1]; pH 5.5, 2.5 g/L, time 3 d) was 7.5 ± 0.2 g/L. For the same compound, the “Cell Dry Weight” value ([1]; pH 5.5, 2.5 g/L, time 4 d) was 8.8 ± 0.4 g/L, the “Cell Dry Weight” value ([1]; pH 5.5, 2.5 g/L, time 5 d) was 10.4 ± 0.4 g/L and the “Cell Dry Weight” value ([1]; pH 5.5, 2.5 g/L, time 6 d) was 11.4 ± 0.3 g/L. For the same compound, the “growth with nitrogen source under an acetic acid pH auxostat system” value [1] was “could grow”, the “Cell Dry Weight” value ([1]; pH 6.0, 10 g/L, time 1 d) was 3.6 ± 0.3 g/L and the “Cell Dry Weight” value ([1]; pH 6.0, 10 g/L, time 2 d) was 6.1 ± 0.1 g/L. For the same compound, the “Cell Dry Weight” value ([1]; pH 6.0, 10 g/L, time 4 d) was 7.9 ± 2.0 g/L and the “Cell Dry Weight” value ([1]; pH 6.0, 10 g/L, time 6 d) was 11.9 ± 2.6 g/L.
With `CC(=O)O.N` [NH4AoC, ammonium acetate] the “Cell Dry Weight” value ([2]; 1X (1.07 g/L NH4, 5.68 g/L acetic acid), time 0 d) was 0.6 ± 0.0 g/L, the “Cell Dry Weight” value ([2]; 1X, time 1 d) was 2.2 ± 0.0 g/L and the “Cell Dry Weight” value ([2]; 1X, time 2 d) was 4.8 ± 0.0 g/L. For the same compound, the “Cell Dry Weight” value ([2]; 1X, time 3 d) was 7.0 ± 0.1 g/L, the “Cell Dry Weight” value ([2]; 1X, time 4 d) was 7.9 ± 0.1 g/L and the “Cell Dry Weight” value ([2]; 1X, time 5 d) was 8.7 ± 0.2 g/L. The “Cell Dry Weight” value ([2]; 1X, time 6 d) was 9.4 ± 0.1 g/L, the “growth on ammonium acetate blends” value ([2]; 1× and 3× blends, pH 6.6) was “able to grow” and the “Cell Dry Weight” value ([2]; 3X (3.21 g/L NH4, 17.04 g/L acetic acid), time 0 d) was 0.6 ± 0.0 g/L. For the same compound, the “Cell Dry Weight” value ([2]; 3X, time 1 d) was 1.7 ± 0.1 g/L, the “Cell Dry Weight” value ([2]; 3X, time 2 d) was 3.6 ± 0.3 g/L and the “Cell Dry Weight” value ([2]; 3X, time 3 d) was 5.2 ± 0.1 g/L. For the same compound, the “Cell Dry Weight” value ([2]; 3X, time 4 d) was 6.5 ± 0.3 g/L, the “Cell Dry Weight” value ([2]; 3X, time 5 d) was 6.8 ± 0.3 g/L and the “Cell Dry Weight” value ([2]; 3X, time 6 d) was 7.5 ± 0.1 g/L. The “Cell Dry Weight” value ([2]; 5X (5.35 g/L NH4, 28.40 g/L acetic acid), time 0 d) was 0.6 ± 0.0 g/L, the “Cell Dry Weight” value ([2]; 5X, time 1 d) was 0.8 ± 0.2 g/L and the “Cell Dry Weight” value ([2]; 5X, time 2 d) was 0.7 ± 0.1 g/L. The “Cell Dry Weight” value ([2]; 5X, time 3 d) was 0.7 ± 0.0 g/L, the “Cell Dry Weight” value ([2]; 5X, time 4 d) was 0.8 ± 0.1 g/L and the “Cell Dry Weight” value ([2]; 5X, time 5 d) was 0.3 ± 0.0 g/L. The “Cell Dry Weight” value ([2]; 5X, time 6 d) was 0.4 ± 0.0 g/L, the “Cell Dry Weight” value ([2]; 7X (7.49 g/L NH4, 39.76 g/L acetic acid), time 0 d) was 0.6 ± 0.0 g/L and the “Cell Dry Weight” value ([2]; 7X, time 1 d) was 1.0 ± 0.2 g/L. For the same compound, the “Cell Dry Weight” value ([2]; 7X, time 2 d) was 0.6 ± 0.1 g/L, the “Cell Dry Weight” value ([2]; 7X, time 3 d) was 0.7 ± 0.0 g/L and the “Cell Dry Weight” value ([2]; 7X, time 4 d) was 0.8 ± 0.1 g/L. The “Cell Dry Weight” value ([2]; 7X, time 5 d) was 0.3 ± 0.0 g/L, the “Cell Dry Weight” value ([2]; 7X, time 6 d) was 0.6 ± 0.1 g/L and the “Cell Dry Weight” value ([1]; pH 5.5, 1.1 g/L, time 0 d) was 0.2 ± 0.0 g/L. The “Cell Dry Weight” value ([1]; pH 5.5, 1.1 g/L, time 1 d) was 2.5 ± 0.1 g/L, the “Cell Dry Weight” value ([1]; pH 5.5, 1.1 g/L, time 2 d) was 4.9 ± 0.1 g/L and the “Cell Dry Weight” value ([1]; pH 5.5, 1.1 g/L, time 3 d) was 7.5 ± 0.3 g/L. For the same compound, the “Cell Dry Weight” value ([1]; pH 5.5, 1.1 g/L, time 4 d) was 8.9 ± 0.2 g/L, the “Cell Dry Weight” value ([1]; pH 5.5, 1.1 g/L, time 5 d) was 10.7 ± 0.3 g/L and the “Cell Dry Weight” value ([1]; pH 5.5, 1.1 g/L, time 6 d) was 11.8 ± 0.1 g/L. For the same compound, the “growth with nitrogen source under an acetic acid pH auxostat system” value [1] was “could grow”, the “Cell Dry Weight” value ([1]; pH 6.0, 4.5 g/L, time 0 d) was 0.2 ± 0.0 g/L and the “Cell Dry Weight” value ([1]; pH 6.0, 4.5 g/L, time 1 d) was 2.6 ± 0.1 g/L. For the same compound, the “Cell Dry Weight” value ([1]; pH 6.0, 4.5 g/L, time 2 d) was 5.4 ± 0.4 g/L, the “Cell Dry Weight” value ([1]; pH 6.0, 4.5 g/L, time 3 d) was 7.8 ± 0.1 g/L and the “Cell Dry Weight” value ([1]; pH 6.0, 4.5 g/L, time 4 d) was 9.8 ± 0.5 g/L. The “Cell Dry Weight” value ([1]; pH 6.0, 4.5 g/L, time 5 d) was 11.9 ± 0.2 g/L and the “Cell Dry Weight” value ([1]; pH 6.0, 4.5 g/L, time 6 d) was 13.8 ± 0.2 g/L.
For `CC(=O)O` [Acetic Acid, acetic acid], the “growth in axenic and contaminated cultures versus cultures not receiving acetic acid” value [3] was “comparable growth”, the “growth using acetate as an organic carbon source” value [4] was “able to grow” and the “decrease of aerobic bacteria counts as compared to the other treatment” value (aerobic bacteria) was ≥ 3 log. The “growth compared to the other culture (glycerol only, HCl)” value [5] was “comparable growth”.
